Reference: article PMC5353710, “Structural insights into the γ-lactamase activity and substrate enantioselectivity of an isochorismatase-like hydrolase from Microbacterium hydrocarbonoxydans” (Scientific Reports, 2017)

Columns and labels:
MhIHL (Mh33H4-5540) [1] = target: T1, MhIHL (Mh33H4-5540) (Microbacterium hydrocarbonoxydans, UniProt A0A0K0XHU0, C111A); conditions: inactive variant; crystal soaked in 250 mM ligand for 1.5 h; active site
MhIHL (Mh33H4-5540) [2] = target: T1, MhIHL (Mh33H4-5540); conditions: inactive variant; crystal soaked in 500 mM ligand for 10 min; active site

Structure (SMILES)	X-ray crystal structure, 1.99 Å (MhIHL (Mh33H4-5540) [1])	X-ray crystal structure, 1.79 Å (MhIHL (Mh33H4-5540) [2])
O=C1N[C@H]2C=C[C@@H]1C2 [(−)-γ-lactam, 2-Azabicyclo[2.2.1]hept-5-en-3-one]	The final crystals of MhIHL–(−)-γ-lactam complex were obtained by soaking the crystal	–
O=C1N[C@@H]2C=C[C@H]1C2 [(+)-γ-lactam, 2-Azabicyclo[2.2.1]hept-5-en-3-one]	–	The final MhIHL–(+)-γ-lactam complex crystals were obtained by soaking the crystal
